ChEMBL document CHEMBL4765293, “Specific stabilization of promoter G-Quadruplex DNA by 2,6-disubstituted amidoanthracene-9,10-dione based dimeric distamycin analogues and their selective cancer cell cytotoxicity” (Eur J Med Chem, 2020)
pIC50: −log10 of the molar value. The source made the active and inactive calls. No cut-off for these calls is given here.

Assays:
Quadruplex DNA [1] = experiment: Binding affinity to c-Myc G4-quadruplex DNA (unknown origin) by UV- vis spectrophotometric analysis; type: nucleic-acid assay
Quadruplex DNA [2] = experiment: Binding affinity to human c-KIT1 G4-quadruplex DNA (unknown origin) by UV- vis spectrophotometric analysis; type: nucleic-acid assay
Quadruplex DNA [3] = experiment: Binding affinity to c-KIT2 G4-quadruplex DNA (unknown origin) by UV- vis spectrophotometric analysis; type: nucleic-acid assay
Quadruplex DNA [4] = experiment: Binding affinity to Human telomeric H21 G4 quadruplex DNA (unknown origin) in presence of KCl by UV- vis spectrophotometric analysis; type: nucleic-acid assay
Quadruplex DNA [5] = experiment: Binding affinity to human telomeric H21 G4 quadruplex DNA in presence of NaCl by UV- vis spectrophotometric analysis; type: nucleic-acid assay
Calf thymus DNA [6] = experiment: Binding affinity to calf thymus duplex DNA by UV- vis spectrophotometric analysis; type: nucleic-acid assay; details: Bos taurus
[7] = Binding affinity to c-MYC ds DNA (unknown orgin) by UV- vis spectrophotometric analysis
[8] = Selectivity index, binding affinity to c-MYC G4 quadruplex DNA (unknown origin) to binding affinity c-MYC ds DNA (unknown origin)
Quadruplex DNA [9] = experiment: Binding affinity to c-MYC G4 quadruplex (unknown origin) assessed as increase in fluorescence intensity at 0.2 uM by fluorescence spectroscopic analysis; type: nucleic-acid assay
Quadruplex DNA [10] = experiment: Binding affinity to c-MYC G4-quadruplex DNA (unknown origin) assessed as fluorescence life time by fluorescence spectroscopic analysis relative to compound alone group; type: nucleic-acid assay
Quadruplex DNA [11] = experiment: Binding affinity to c-MYC G4-quadruplex DNA (unknown orgin) assessed increase in melting temperature measured after 12 hrs by thermal denaturation based spectrophotometric analysis; type: nucleic-acid assay
Quadruplex DNA [12] = experiment: Binding affinity to c-KIT1 G4-quadruplex DNA (unknown orgin) assessed increase in melting temperature measured after 12 hrs by thermal denaturation based spectrophotometric analysis; type: nucleic-acid assay
Quadruplex DNA [13] = experiment: Binding affinity to c-KIT2 G4-quadruplex DNA (unknown orgin) assessed increase in melting temperature measured after 12 hrs by thermal denaturation based spectrophotometric analysis; type: nucleic-acid assay
Quadruplex DNA [14] = experiment: Induction of stabilization of c-MYC G-quadruplex DNA template sequence (unknown orgin) assessed as inhibition of Taq polymerase mediated DNA polymerization at high concentration in presence K+ measured after 30 mins by Taq DNA polymerase stop assay; type: nucleic-acid assay
NIH3T3 = experiment: Cytotoxicity against mouse NIH3T3 cells assessed as cell viability incubated for 72 hr by MTT assay; type: cell-based; details: NIH3T3, 72 h
[15] = Cytotoxicity against human HDFa cells assessed as cell viability incubated for 72 hr by MTT assay; type: cell-based
HEK-293T = experiment: Cytotoxicity against human HEK293T cells assessed as cell viability incubated for 72 hr by MTT assay; type: functional, cell-based
HeLa [16] = experiment: Cytotoxicity against human HeLa cells assessed as cell viability incubated for 72 hr by MTT assay; type: functional, cell-based
HeLa [17] = experiment: Induction of apoptosis in human HeLa cells at 100 uM after 24 to 48 hrs by annexin V/PI- staining based flow cytometric analysis; type: functional, cell-based; details: time 24-48 hrs
HeLa [18] = experiment: Induction of apoptosis in human HeLa cells at 7 uM after 24 to 48 hrs by annexin V/PI- staining based flow cytometric analysis; type: functional, cell-based
HeLa [19] = experiment: Induction of apoptosis in human HeLa cells at 5 uM after 24 to 48 hrs by annexin V/PI- staining based flow cytometric analysis; type: functional, cell-based
HeLa [20] = experiment: Induction of apoptotic cell death in human HeLa cells assessed as morphological changes from the spindle-shaped cells to round-shaped at 50 to 200 uM measured after 24 hrs by acridine orange/ethidium bromide staining based fluorescence microscopy; type: functional; details: dose 50-200 µM
HeLa [21] = experiment: Induction of apoptotic cell death in human HeLa cells assessed as morphological changes from the spindle-shaped cells to round-shaped at 2 to 10 uM measured after 24 hrs by acridine orange/ethidium bromide staining based fluorescence microscopy; type: functional
Quadruplex DNA [22] = experiment: Binding affinity to c-KIT1 G4 quadruplex (unknown origin) assessed as increase in fluorescence intensity at 0.2 uM by fluorescence spectroscopic analysis; type: nucleic-acid assay
Quadruplex DNA [23] = experiment: Binding affinity to c-KIT2 G4 quadruplex (unknown origin) assessed as increase in fluorescence intensity at 0.2 uM by fluorescence spectroscopic analysis; type: nucleic-acid assay
Quadruplex DNA [24] = experiment: Binding affinity to human telomeric H21 G4 quadruplex DNA in presence of KCl assessed as increase in fluorescence intensity at 0.2 uM by fluorescence spectroscopic analysis; type: nucleic-acid assay
Quadruplex DNA [25] = experiment: Binding affinity to human telomeric H21 G4 quadruplex DNA in presence of NaCl assessed as increase in fluorescence intensity at 0.2 uM by fluorescence spectroscopic analysis; type: nucleic-acid assay
Quadruplex DNA [26] = experiment: Binding affinity to c-MYC G4 quadruplex DNA (unknown orgin) by cyclic voltammetry; type: nucleic-acid assay
Quadruplex DNA [27] = experiment: Binding affinity to c-MYC G4-quadruplex DNA (unknown orgin) assessed as slight change in ellipticity of the CD signatures and topology by circular dichroism spectroscopy; type: nucleic-acid assay
Quadruplex DNA [28] = experiment: Binding affinity to human telomeric H21 G4-quadruplex DNA assessed as slight change in ellipticity of the CD signatures and topology in presence KCl of by circular dichroism spectroscopy; type: nucleic-acid assay
Quadruplex DNA [29] = experiment: Binding affinity to human telomeric H21 G4-quadruplex DNA assessed as slight change in ellipticity of the CD signatures and topology in presence NaCl of by circular dichroism spectroscopy; type: nucleic-acid assay
Calf thymus DNA [30] = experiment: Binding affinity to calf thymus duplex DNA assessed as slight change in ellipticity of the CD signatures and topology by circular dichroism spectroscopy; type: nucleic-acid assay; details: Bos taurus
Homo sapiens = species on record: Homo sapiens; experiment: Binding affinity to c-MYC ds DNA (unknown origin) assessed as slight change in ellipticity of the CD signatures and topology by circular dichroism spectroscopy
Quadruplex DNA [31] = experiment: Binding affinity to c-MYC G4-quadruplex DNA (unknown orgin) at 100 uM by ethidium bromide displacement assay; type: nucleic-acid assay
HeLa [32] = experiment: Induction of apoptotic cell death in human HeLa cells assessed as change in nuclear morphology at 3 to 5 uM after 12 hrs by acridine orange/ethidium bromide staining based fluorescence microscopy; type: functional; details: dose 3-5 µM
HeLa [33] = experiment: Induction of apoptosis in human HeLa cells assessed as nuclear condensation and fragmentation at 5 uM measured after 24 hrs by DAPI staining based confocal laser scanning microscopy analysis; type: functional, cell-based
HeLa [34] = experiment: Induction of apoptotic cell death in human HeLa cells assessed as change in nuclear morphology at 5 to 7 uM after 12 hrs by acridine orange/ethidium bromide staining based fluorescence microscopy; type: functional; details: dose 5-7 µM
HeLa [35] = experiment: Induction of apoptosis in human HeLa cells assessed as nuclear condensation and fragmentation at 7 uM measured after 24 hrs by DAPI staining based confocal laser scanning microscopy analysis; type: functional, cell-based

Row | SMILES | Ka (Quadruplex DNA [1]) | Ka (Quadruplex DNA [2]) | Ka (Quadruplex DNA [3]) | Ka (Quadruplex DNA [4]) | Ka (Quadruplex DNA [5]) | Ka (Calf thymus DNA [6]) | Ka [7] | Selectivity Index [8] | Activity (Quadruplex DNA [9]) | Time (Quadruplex DNA [10]) | ΔTm (Quadruplex DNA [11]) | ΔTm (Quadruplex DNA [12]) | ΔTm (Quadruplex DNA [13]) | Activity (Quadruplex DNA [14]) | pIC50 (NIH3T3) | pIC50 [15] | Activity (Quadruplex DNA [22]) | Activity (Quadruplex DNA [23]) | Activity (Quadruplex DNA [24]) | Activity (Quadruplex DNA [25]) | also measured
1 | Cn1cccc1C(=O)NCCC[N+](C)(C)CC(=O)Nc1ccc2c(c1)C(=O)c1ccc(NC(=O)C[N+](C)(C)CCCNC(=O)c3cccn3C)cc1C2=O.[Cl-].[Cl-] | 1.4 10^6/M | 0.6 10^6/M | 0.8 10^6/M | 0.5 10^6/M | 0.6 10^6/M | 0.02 10^6/M | 0.025 10^6/M | 70 | Active | 0.54 nanoseconds | 3.2 °C | 4.7 °C | 1.2 °C | Active | < 4.00 | < 4.00 | Active | Active | Active | Active | pIC50 (HEK-293T): 4.37; pIC50 (HeLa [16]): < 4.00; Activity (HeLa [17]): Active; AC50 (HeLa [18]): Active; AC50 (HeLa [19]): Active; Activity (HeLa [20]): Active; AC50 (HeLa [21]): Active
2 | Cn1cc(NC(=O)c2cc(NC(=O)c3cccn3C)cn2C)cc1C(=O)NCCC[N+](C)(C)CC(=O)Nc1ccc2c(c1)C(=O)c1ccc(NC(=O)C[N+](C)(C)CCCNC(=O)c3cc(NC(=O)c4cc(NC(=O)c5cccn5C)cn4C)cn3C)cc1C2=O | 3.8 10^6/M | 3.1 10^6/M | 4.1 10^6/M | 1.1 10^6/M | 0.6 10^6/M | 0.01 10^6/M | 0.012 10^6/M | 380 | Active | 0.37 nanoseconds | 11.1 °C | 9.9 °C | 6.8 °C | Active | < 4.00 | < 4.00 | Active | Active | Active | Active | Activity (Quadruplex DNA [26]): Active; Activity (Quadruplex DNA [27]): Active; Activity (Quadruplex DNA [28]): Active; Activity (Quadruplex DNA [29]): Active; Activity (Calf thymus DNA [30]): Active; Activity (Homo sapiens): Active; Activity (Quadruplex DNA [31]): Active; pIC50 (HEK-293T): 4.82; pIC50 (HeLa [16]): 5.28; Activity (HeLa [32]): Active; Activity (HeLa [33]): Active
3 | Cn1cc(NC(=O)c2cccn2C)cc1C(=O)NCCC[N+](C)(C)CC(=O)Nc1ccc2c(c1)C(=O)c1ccc(NC(=O)C[N+](C)(C)CCCNC(=O)c3cc(NC(=O)c4cccn4C)cn3C)cc1C2=O | 2.8 10^6/M | 1.3 10^6/M | 1.8 10^6/M | 0.3 10^6/M | 0.6 10^6/M | 0.016 10^6/M | 0.018 10^6/M | 175 | Active | 0.55 nanoseconds | 7.4 °C | 7.9 °C | 5.1 °C | Active | < 4.00 | < 4.00 | Active | Active | Active | Active | Activity (Quadruplex DNA [27]): Active; Activity (Quadruplex DNA [28]): Active; Activity (Quadruplex DNA [29]): Active; Activity (Calf thymus DNA [30]): Active; Activity (Homo sapiens): Active; Activity (Quadruplex DNA [31]): Active; pIC50 (HEK-293T): 4.72; pIC50 (HeLa [16]): 5.13; Activity (HeLa [34]): Active; Activity (HeLa [35]): Active
4 | C[N+](C)(C)CC(=O)Nc1ccc2c(c1)C(=O)c1ccc(NC(=O)C[N+](C)(C)C)cc1C2=O | 0.16 10^6/M | 0.11 10^6/M | 0.09 10^6/M | 0.07 10^6/M | 0.05 10^6/M | 0.06 10^6/M | 0.05 10^6/M | 3.2 | – | – | – | – | – | – | – | – | Active | Active | Active | Active | –
